Measured values from ChEMBL document CHEMBL6092124, “Design, synthesis and biological evaluation of novel cyano-cinnamate derivatives as mitochondrial pyruvate carrier inhibitors” (Bioorg Med Chem Lett, 2024).
Activity calls are given as the source filed them. The rule behind the calls is not given here.

What was measured:
[1] = system: MCF-10A; experiment: Inhibition of MPC in human MCF-10A cells assessed as cellular lactate production measured per 10^6 cells at 10 uM measured for 36 hrs; format: cell-based
[2] = system: MCF-10A; experiment: Inhibition of MPC in human MCF-10A cells assessed as lactate concentration at 10 uM measured for 36 hrs; format: cell-based
[3] = system: MCF-10A; experiment: Inhibition of MPC in human MCF-10A cells assessed as cellular lactate production measured per 10^6 cells measured for 36 hrs; format: cell-based; conditions: dose 10.0 µM
[4] = species: Mus musculus; experiment: Induction of hair growth in C57BL/6J mouse assessed as appearance of hair growth patches measured on day 17; format: functional, organism-based; conditions: time 17.0 day
[5] = species: Mus musculus; experiment: Induction of hair growth in C57BL/6J mouse assessed as increase in pigmentation measured after 10 days; format: functional, organism-based; conditions: time 10.0 day

## CCOC(=O)/C(C#N)=C/c1cn(-c2cncnc2)c2ccccc12
[1]
  Activity: 0.006 µmol
[2]
  Activity: 0.025 µmol/mL

## CCOC(=O)/C(C#N)=C/c1cn(Cc2ccc3ccccc3c2)c2ccccc12
[1]
  Activity: 0.064 µmol
[2]
  Activity: 0.268 µmol/mL

## CCOC(=O)/C(C#N)=C/c1cn(-c2cccnc2)c2ccccc12
[1]
  Activity: 0.033 µmol
[2]
  Activity: 0.138 µmol/mL

## CCOC(=O)/C(C#N)=C/c1cn(Cc2ccccn2)c2ccccc12
[1]
  Activity: -0.03 µmol
[2]
  Activity: -0.128 µmol/mL

## N#C/C(=C\c1cn(-c2ncccn2)c2ccccc12)C(=O)O
[1]
  Activity: 0.1 µmol
[2]
  Activity: 0.421 µmol/mL

## Cn1cnc(-n2cc(/C=C(\C#N)C(=O)O)c3ccccc32)c1
[1]
  Activity: -0.001 µmol
[2]
  Activity: -0.003 µmol/mL

## CCOC(=O)/C(C#N)=C/c1cn(Cc2cccnc2)c2ccccc12
[1]
  Activity: 0.208 µmol
[2]
  Activity: 0.874 µmol/mL

## CCOC(=O)/C(C#N)=C/c1cn(-c2ncccn2)c2ccccc12
[1]
  Activity: 0.081 µmol
[2]
  Activity: 0.342 µmol/mL

## N#C/C(=C\c1cn(Cc2ccc3ccccc3c2)c2ccccc12)C(=O)O
[1]
  Activity: 0.292 µmol
[2]
  Activity: 1.23 µmol/mL

## N#C/C(=C\c1cn(Cc2ccncc2)c2ccccc12)C(=O)O
[1]
  Activity: -0.08 µmol
[2]
  Activity: -0.337 µmol/mL

## N#C/C(=C\c1cn(-c2ccccn2)c2ccccc12)C(=O)O
[1]
  Activity: 0.116 µmol
[2]
  Activity: 0.489 µmol/mL

## N#C/C(=C\c1cn(-c2ccccc2)c2ccccc12)C(=O)O
[1]
  Activity: 0.185 µmol
[2]
  Activity: 0.778 µmol/mL
[3]
  Activity: Dose-dependent-effect
[4]
  Activity: Active

## N#C/C(=C\c1cn(-c2cncnc2)c2ccccc12)C(=O)O
[1]
  Activity: 0.13 µmol
[2]
  Activity: 0.546 µmol/mL

## N#C/C(=C\c1cn(-c2ccc3ccccc3c2)c2ccccc12)C(=O)O
[1]
  Activity: 0.123 µmol
[2]
  Activity: 0.517 µmol/mL

## CCOC(=O)/C(C#N)=C/c1cn(-c2ccc3ccccc3c2)c2ccccc12
[1]
  Activity: 0.104 µmol
[2]
  Activity: 0.438 µmol/mL

## CCOC(=O)/C(C#N)=C/c1cn(-c2ccncc2)c2ccccc12
[1]
  Activity: 0.006 µmol
[2]
  Activity: 0.025 µmol/mL

## N#C/C(=C\c1cn(Cc2cccnc2)c2ccccc12)C(=O)O
[1]
  Activity: 0.093 µmol
[2]
  Activity: 0.393 µmol/mL

## N#C/C(=C\c1cn(-c2cccnc2)c2ccccc12)C(=O)O
[1]
  Activity: 0.06 µmol
[2]
  Activity: 0.251 µmol/mL

## CCOC(=O)/C(C#N)=C/c1cn(Cc2ccncc2)c2ccccc12
[1]
  Activity: -0.005 µmol
[2]
  Activity: -0.02 µmol/mL

## CCOC(=O)/C(C#N)=C/c1cn(-c2ccccn2)c2ccccc12
[1]
  Activity: 0.148 µmol
[2]
  Activity: 0.625 µmol/mL

## CCOC(=O)/C(C#N)=C/c1cn(-c2cn(C)cn2)c2ccccc12
[1]
  Activity: 0.152 µmol
[2]
  Activity: 0.64 µmol/mL

## N#C/C(=C\c1cn(-c2ccncc2)c2ccccc12)C(=O)O
[1]
  Activity: 0.014 µmol
[2]
  Activity: 0.059 µmol/mL

## N#C/C(=C\c1cn(Cc2ccccn2)c2ccccc12)C(=O)O
[1]
  Activity: 0.322 µmol
[2]
  Activity: 1.35 µmol/mL
[5]
  Activity: Active; Drug Entered To Anagen Phase
[4]
  Activity: Active
